Results as given in patent publication US11530244B2, “Cyclic polypeptides for PCSK9 inhibition” (priority 2018, dated 2022).
Starred links: 1 amine or outer side, 2 acyl side, 3 side chain; linkers in the order of their positions; H or OH if unused. Positions of bridges follow the written chain, without caps; N, C: chain ends. Non-standard residues stand in square brackets, D forms with d. Residues, ends and D or L forms follow the SMILES beside them. NMeTrp(1-Me) = CN[C@@H](Cc1cn(C)c2ccccc12)C(=O)O; Trp(5-F) = N[C@@H](Cc1c[nH]c2ccc(F)cc12)C(=O)O; Trp(1-Me) = Cn1cc(C[C@H](N)C(=O)O)c2ccccc21; Asp(3,3-Me2) = CC(C)(C(=O)O)[C@H](N)C(=O)O; mXylylene(5-F) = Fc1cc(C[*:1])cc(C[*:2])c1; Leu(3R-OH) = CC(C)[C@@H](O)[C@H](N)C(=O)O; X13 = O=C(CCCCc1cccc(CCCCN[*:1])c1)[*:2]; X4 = O=C(CCSCc1cccc(CSCCN[*:1])c1)[*:2]; 2Nal = N[C@@H](Cc1ccc2ccccc2c1)C(=O)O; X23 = CC[C@@]1(C(=O)[*:2])CCCN1[*:1]; mXylylene = c1cc(C[*:1])cc(C[*:2])c1; NMeY = CN[C@@H](Cc1ccc(O)cc1)C(=O)O; Val(3-OH) = CC(C)(O)[C@H](N)C(=O)O; NMeT = CN[C@H](C(=O)O)[C@@H](C)O; β3hT = C[C@@H](O)[C@H](N)CC(=O)O; aThr = C[C@H](O)[C@H](N)C(=O)O; NMeL = CN[C@@H](CC(C)C)C(=O)O; dNMeL = CN[C@H](CC(C)C)C(=O)O; αMeP = C[C@@]1(C(=O)O)CCCN1; Nva = CCC[C@H](N)C(=O)O; Aib = CC(C)(N)C(=O)O; Mpa = O=C(O)CCS

Legend:
PCSK9 = PCSK9 (Homo sapiens (Human), UniProt Q8NBP7); assay: PCSK9 Alexa FRET Standard assay (displacement of AlexaFluor647 tagged cyclic peptide Reagent A); type: binding; settings: PCSK9 Alexa FRET Standard assay, 0.5 nM PCSK9, 20 nM AF cyclic peptide Reagent A; read-out: IC50
How it was run: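 TR-FRET displacement: 0.5 nM biotinylated PCSK9 with 1.25 nM Strep-Eu and 20 nM AlexaFluor-tagged cyclic peptide (final) in 50 mM HEPES pH 7.4, 0.15 M NaCl, 5 mM CaCl2, 0.01% BSA, 0.01% P20, ≥2 h at room temperature. IC50 from sigmoidal fit, converted to Ki via peptide KD; falling Eu counts flagged false positives.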

[1] = biological target: human PCSK9 / human LDLR EGFa domain interaction (Homo sapiens (Human), UniProt Q8NBP7); assay: TR-FRET assay of inhibition of the PCSK9-LDLR protein-protein interaction; type: binding; settings: TR-FRET, 20 nM human PCSK9, 20 nM human LDLR EGFa domain, 2 hours room temperature; read-out: IC50
How it was run: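 Avitag-biotinylated human PCSK9 (20 nM) and his-tagged human LDLR EGFa domain (20 nM) were incubated with 5 nM Ulight streptavidin and 5 nM europium anti-6×His for 2 h at room temperature. Buffer: 50 mM HEPES, 150 mM NaCl, 5 mM CaCl2, 0.01% BSA, 0.01% P20. IC50 from 4-parameter fit of dose-response.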

Sequence of PCSK9 (Q8NBP7 153-692): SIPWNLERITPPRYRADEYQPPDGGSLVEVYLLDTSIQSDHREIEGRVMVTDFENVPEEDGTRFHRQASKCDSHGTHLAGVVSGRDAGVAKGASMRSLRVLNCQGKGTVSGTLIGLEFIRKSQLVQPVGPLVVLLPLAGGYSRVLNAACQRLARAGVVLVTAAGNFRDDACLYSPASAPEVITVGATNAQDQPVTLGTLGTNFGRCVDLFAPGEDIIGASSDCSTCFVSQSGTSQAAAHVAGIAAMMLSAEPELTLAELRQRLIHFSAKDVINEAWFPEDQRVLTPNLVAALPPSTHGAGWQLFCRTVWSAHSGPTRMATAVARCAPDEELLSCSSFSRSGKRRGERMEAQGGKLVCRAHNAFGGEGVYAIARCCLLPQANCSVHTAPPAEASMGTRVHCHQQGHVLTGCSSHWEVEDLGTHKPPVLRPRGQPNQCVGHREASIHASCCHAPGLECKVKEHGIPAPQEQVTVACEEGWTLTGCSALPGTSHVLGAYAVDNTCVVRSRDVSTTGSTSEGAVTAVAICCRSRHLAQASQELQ
Sequence of human PCSK9 / human LDLR EGFa domain interaction (Q8NBP7 153-692): as above
Sequence of human PCSK9 / human LDLR EGFa domain interaction (Q8NBP7 31-152 partner): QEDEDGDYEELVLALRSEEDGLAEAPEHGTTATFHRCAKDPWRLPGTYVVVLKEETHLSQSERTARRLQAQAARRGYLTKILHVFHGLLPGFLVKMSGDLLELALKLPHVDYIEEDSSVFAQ

Row | Structure (SMILES) | IC50 (PCSK9) [nM] | IC50 [1] [nM]
1 | C[C@H]1NC(=O)[C@H](CCCCN)NC(=O)CCSCc2cccc(c2)CSC[C@@H](C(N)=O)NC(=O)[C@]2(C)CCCN2C(=O)[C@H](Cc2ccc(O)cc2)NC(=O)C(C)(C)NC(=O)[C@@H]2CCCN2C(=O)[C@H](Cc2c[nH]c3ccc(F)cc23)NC(=O)[C@H](Cc2c[nH]c3ccc(F)cc23)NC1=O [Compound 005] ([Mpa]K[dA][Trp(5-F)][Trp(5-F)]P[Aib]Y[αMeP]C-NH2; linker 1-10 via mXylylene) | 100 to 1000 | 0.1 to 100
2 | COc1ccc(C[C@@H]2NC(=O)[C@H]([C@@H](C)O)NC(=O)[C@]3(C)CCCN3C(=O)[C@H](Cc3c[nH]c4ccc(F)cc34)NC(=O)[C@H](Cc3c[nH]c4ccc(F)cc34)NC(=O)[C@@H](C)NC(=O)[C@H](CCCCN)NC(=O)CCSCc3cccc(c3)CSCCNC(=O)[C@]3(C)CCCN3C2=O)cc1 [Compound 025] (cyclo(K[dA][Trp(5-F)][Trp(5-F)][αMeP]TY(Me)[αMeP][X4])) | 100 to 1000 | 100 to 1000
3 | COc1ccc(C[C@@H]2NC(=O)CCSCc3cccc(c3)CSC[C@@H](C(N)=O)NC(=O)[C@]3(C)CCCN3C(=O)[C@H](Cc3ccc(OC)cc3)NC(=O)[C@H]([C@@H](C)OC)NC(=O)[C@H](CC(C)C)N(C)C(=O)[C@H](Cc3ccc(OC)cc3)NC(=O)[C@H](Cc3ccc(OC)cc3)N(C)C(=O)[C@@H](CC(C)C)NC2=O)cc1 [Compound 036] ([Mpa]Y(Me)[dL][NMeY](Me)Y(Me)[NMeL]T(Me)Y(Me)[αMeP]C-NH2; linker 1-10 via mXylylene) | 0.11 to 100 | 0.1 to 100
4 | C[C@@H](O)[C@@H]1NC(=O)[C@@H]2CCCN2C(=O)[C@H](Cc2c[nH]c3ccc(F)cc23)NC(=O)[C@H](Cc2c[nH]c3ccc(F)cc23)NC(=O)CNC(=O)[C@H](CCCCN)NC(=O)CCSCc2cc(F)cc(c2)CSC[C@@H](C(N)=O)NC(=O)[C@]2(C)CCCN2C(=O)[C@H](Cc2ccc(O)cc2)NC1=O [Compound 043] ([Mpa]KG[Trp(5-F)][Trp(5-F)]PTY[αMeP]C-NH2; linker 1-10 via mXylylene(5-F)) | 100 to 1000 | 100 to 1000
5 | COc1ccc(C[C@@H]2NC(=O)[C@H]([C@@H](C)O)NC(=O)[C@@H]3CCCN3C(=O)[C@H](Cc3c[nH]c4ccc(F)cc34)NC(=O)[C@H](Cc3c[nH]c4ccc(F)cc34)NC(=O)[C@@H](C)NC(=O)[C@H](C)NC(=O)CCCCc3cccc(c3)CCCCNC(=O)[C@@H]3CCCN3C2=O)cc1 [Compound 047] (cyclo(A[dA][Trp(5-F)][Trp(5-F)]PTY(Me)P[X13])) | 100 to 1000 | 100 to 1000
6 | CC(C)(O)[C@@H]1NC(=O)[C@@H]2CCCN2C(=O)[C@H](Cc2c[nH]c3ccc(F)cc23)NC(=O)[C@H](Cc2c[nH]c3ccc(F)cc23)NC(=O)CNC(=O)[C@H](CCCCN)NC(=O)CCSCc2cccc(c2)CSC[C@@H](C(N)=O)NC(=O)[C@]2(C)CCCN2C(=O)[C@H](Cc2ccc(O)cc2)NC1=O [Compound 048] ([Mpa]KG[Trp(5-F)][Trp(5-F)]P[Val(3-OH)]Y[αMeP]C-NH2; linker 1-10 via mXylylene) | 100 to 1000 | 100 to 1000
7 | C[C@H](O)[C@@H]1NC(=O)[C@@H]2CCCN2C(=O)[C@H](Cc2c[nH]c3ccc(F)cc23)NC(=O)[C@H](Cc2c[nH]c3ccc(F)cc23)NC(=O)CNC(=O)[C@H](CCCCN)NC(=O)CCSCc2cccc(c2)CSC[C@@H](C(N)=O)NC(=O)[C@]2(C)CCCN2C(=O)[C@H](Cc2ccc(O)cc2)NC1=O [Compound 050] ([Mpa]KG[Trp(5-F)][Trp(5-F)]P[aThr]Y[αMeP]C-NH2; linker 1-10 via mXylylene) | 21000 to 50000 | 21000 to 50000
8 | CC(C)[C@H]1NC(=O)[C@H](CCCCN)NC(=O)CCSCc2cccc(c2)CSC[C@@H](C(N)=O)NC(=O)[C@]2(C)CCCN2C(=O)[C@H](Cc2ccc(O)cc2)NC(=O)[C@H]([C@@H](C)O)NC(=O)[C@@H]2CCCN2C(=O)[C@H](Cc2c[nH]c3ccc(F)cc23)NC(=O)[C@H](Cc2c[nH]c3ccc(F)cc23)NC1=O [Compound 052] ([Mpa]K[dV][Trp(5-F)][Trp(5-F)]PTY[αMeP]C-NH2; linker 1-10 via mXylylene) | 1000 to 12100 | 1000 to 12100
9 | CO[C@@H](C)[C@@H]1NC(=O)[C@@H]2CCCN2C(=O)[C@H](Cc2c[nH]c3ccc(F)cc23)NC(=O)[C@H](Cc2c[nH]c3ccc(F)cc23)NC(=O)[C@@H](C)NC(=O)[C@H](CCCCN)NC(=O)CCSCc2cccc(c2)CSC[C@@H](C(N)=O)NC(=O)[C@]2(C)CCCN2C(=O)[C@H](Cc2ccc(O)cc2)NC1=O [Compound 053] ([Mpa]K[dA][Trp(5-F)][Trp(5-F)]P[aThr](Me)Y[αMeP]C-NH2; linker 1-10 via mXylylene) | 1000 to 12100 | 1000 to 12100
10 | COc1ccc(C[C@@H]2NC(=O)[C@H]([C@@H](C)O)NC(=O)[C@@H]3CCCN3C(=O)[C@H](Cc3c[nH]c4ccc(F)cc34)NC(=O)[C@H](Cc3c[nH]c4ccc(F)cc34)NC(=O)[C@@H](C)NC(=O)[C@H](CCCCN)NC(=O)CCSCc3cccc(c3)CSC[C@@H](C(N)=O)NC(=O)[C@]3(C)CCCN3C2=O)cc1 [Compound 054] ([Mpa]K[dA][Trp(5-F)][Trp(5-F)]PTY(Me)[αMeP]C-NH2; linker 1-10 via mXylylene) | 100 to 1000 | 0.1 to 100
11 | C[C@H]1NC(=O)[C@H](C(C)(C)C(=O)O)NC(=O)[C@H](Cc2c[nH]c3ccc(F)cc23)NC(=O)[C@H](Cc2c[nH]c3ccc(F)cc23)NC(=O)CNC(=O)[C@H](CCCCN)NC(=O)CCSCc2cccc(c2)CSC[C@@H](C(N)=O)NC(=O)[C@]2(C)CCCN2C(=O)[C@H](Cc2ccc(O)cc2)NC1=O [Compound 055] ([Mpa]KG[Trp(5-F)][Trp(5-F)][Asp(3,3-Me2)][dA]Y[αMeP]C-NH2; linker 1-10 via mXylylene) | 21000 to 50000 | 1000 to 12100

Other lines, results leading:

Row | IC50 (PCSK9) [nM] | IC50 [1] [nM] | Structure (SMILES)
12 | 0.11 to 100 | 0.1 to 100 | CCC[C@@H]1NC(=O)CCSCc2cccc(c2)CSC[C@@H](C(N)=O)NC(=O)[C@@H]2CCCN2C(=O)[C@H](Cc2ccc(OC)cc2)NC(=O)[C@H]([C@@H](C)OC)NC(=O)[C@@H]2CCCN2C(=O)[C@H](Cc2cn(C)c3ccccc23)N(C)C(=O)[C@H](Cc2ccc3ccccc3c2)NC(=O)[C@@H](CC(C)C)N(C)C1=O [Compound 038] ([Mpa][Nva][dNMeL][2Nal][NMeTrp(1-Me)]PT(Me)Y(Me)PC-NH2; linker 1-10 via mXylylene)
13 | 1000 to 12100 | 21000 to 50000 | C[C@H]1NC(=O)[C@H](CCCCN)NC(=O)CCSCc2cc(F)cc(c2)CSC[C@@H](C(N)=O)NC(=O)[C@]2(C)CCCN2C(=O)[C@H](Cc2ccc(O)cc2)NC(=O)[C@H]([C@@H](C)O)NC(=O)[C@@H]2CCCN2C(=O)[C@H](Cc2c[nH]c3ccc(F)cc23)NC(=O)[C@H](Cc2c[nH]c3ccc(F)cc23)NC1=O [Compound 042] ([Mpa]K[dA][Trp(5-F)][Trp(5-F)]PTY[αMeP]C-NH2; linker 1-10 via mXylylene(5-F))
14 | 100 to 1000 | 100 to 1000 | C[C@H]1NC(=O)[C@H](CCCCN)NC(=O)CCSCc2cccc(c2)CSC[C@@H](C(N)=O)NC(=O)[C@]2(C)CCCN2C(=O)[C@H](Cc2ccc(O)cc2)NC(=O)[C@H]([C@@H](C)O)NC(=O)[C@@H]2CCCN2C(=O)[C@H](Cc2c[nH]c3ccc(F)cc23)NC(=O)[C@H](Cc2c[nH]c3ccc(F)cc23)NC1=O [Compound 044] ([Mpa]K[dA][Trp(5-F)][Trp(5-F)]PTY[αMeP]C-NH2; linker 1-10 via mXylylene)
15 | 1000 to 12100 | 1000 to 12100 | CC[C@@]12CCCN1C(=O)[C@H](Cc1ccc(O)cc1)NC(=O)[C@H]([C@@H](C)O)NC(=O)[C@@H]1CCCN1C(=O)[C@H](Cc1c[nH]c3ccc(F)cc13)NC(=O)[C@H](Cc1c[nH]c3ccc(F)cc13)NC(=O)CNC(=O)[C@H](CCCCN)NC(=O)CCSCc1cccc(c1)CSC[C@@H](C(N)=O)NC2=O [Compound 045] ([Mpa]KG[Trp(5-F)][Trp(5-F)]PTY[X23]C-NH2; linker 1-10 via mXylylene)
16 | 0.11 to 100 | 0.1 to 100 | CCC[C@@H]1NC(=O)CCSCc2cccc(c2)CSC[C@@H](C(N)=O)NC(=O)[C@@H]2CCCN2C(=O)[C@H](Cc2ccc(OC)cc2)NC(=O)[C@H]([C@@H](C)OC)N(C)C(=O)[C@@H]2CCCN2C(=O)[C@H](Cc2cn(C)c3ccccc23)NC(=O)[C@H](Cc2ccc3ccccc3c2)NC(=O)[C@@H](CC(C)C)N(C)C1=O [Compound 046] ([Mpa][Nva][dNMeL][2Nal][Trp(1-Me)]P[NMeT](Me)Y(Me)PC-NH2; linker 1-10 via mXylylene)
17 | 100 to 1000 | 100 to 1000 | CC(C)[C@@H](O)[C@@H]1NC(=O)[C@@H]2CCCN2C(=O)[C@H](Cc2c[nH]c3ccc(F)cc23)NC(=O)[C@H](Cc2c[nH]c3ccc(F)cc23)NC(=O)CNC(=O)[C@H](CCCCN)NC(=O)CCSCc2cccc(c2)CSC[C@@H](C(N)=O)NC(=O)[C@]2(C)CCCN2C(=O)[C@H](Cc2ccc(O)cc2)NC1=O [Compound 049] ([Mpa]KG[Trp(5-F)][Trp(5-F)]P[Leu(3R-OH)]Y[αMeP]C-NH2; linker 1-10 via mXylylene)
18 | 0.11 to 100 | 0.1 to 100 | C[C@@H](O)[C@H]1CC(=O)N[C@@H](Cc2ccc(O)cc2)C(=O)N2CCC[C@@]2(C)C(=O)N[C@H](C(N)=O)CSCc2cccc(c2)CSCCC(=O)N[C@@H](CCCCN)C(=O)NCC(=O)N[C@@H](Cc2c[nH]c3ccc(F)cc23)C(=O)N[C@@H](Cc2c[nH]c3ccc(F)cc23)C(=O)N2CCC[C@H]2C(=O)N1 [Compound 051] ([Mpa]KG[Trp(5-F)][Trp(5-F)]P[β3hT]Y[αMeP]C-NH2; linker 1-10 via mXylylene)
